Measured values taken from ChEMBL document CHEMBL1687752, “Impact of antifungal prophylaxis on colonization and azole susceptibility of Candida species” (2009).
≈ marks a conversion by molar mass, not a printed value.

system: Pichia kudriavzevii; assay: Antifungal activity against 16 days cultured Candida krusei isolated from neutropenic subject with AML or MDS pharynx receiving antifungal therapy for 19 days after 6 days of prophylaxis by broth microdilution method; format: functional; conditions: not given

| Structure (SMILES) | MIC [µg/mL] |
| --- | --- |
| CC[C@@H]([C@H](C)O)n1ncn(-c2ccc(N3CCN(c4ccc(OC[C@@H]5CO[C@@](Cn6cncn6)(c6ccc(F)cc6F)C5)cc4)CC3)cc2)c1=O [POSACONAZOLE] | 0.25 (≈ 0.357 µM) |

system: Nakaseomyces glabratus; assay: Antifungal activity against Candida glabrata isolated from neutropenic subject 1102 with AML or MDS stool after 26 days prophylaxis by broth microdilution method; format: functional; conditions: 624 h

| Structure (SMILES) | MIC [µg/mL] |
| --- | --- |
| CC[C@@H]([C@H](C)O)n1ncn(-c2ccc(N3CCN(c4ccc(OC[C@@H]5CO[C@@](Cn6cncn6)(c6ccc(F)cc6F)C5)cc4)CC3)cc2)c1=O [POSACONAZOLE] | 0.25 (≈ 0.357 µM) |

system: Nakaseomyces glabratus; assay: Antifungal activity against Candida glabrata isolated from neutropenic subject 1187 with AML or MDS stool receiving antifungal drug after 22 days prophylaxis by broth microdilution method; format: functional; conditions: 528 h

| Structure (SMILES) | MIC [µg/mL] |
| --- | --- |
| CC[C@@H]([C@H](C)O)n1ncn(-c2ccc(N3CCN(c4ccc(OC[C@@H]5CO[C@@](Cn6cncn6)(c6ccc(F)cc6F)C5)cc4)CC3)cc2)c1=O [POSACONAZOLE] | 4 (≈ 5.71 µM) |

system: Pichia kudriavzevii; assay: Antifungal activity against 8 days cultured Candida krusei isolated from neutropenic subject with AML or MDS pharynx after 12 days of prophylaxis by broth microdilution method; format: functional; conditions: not given

| Structure (SMILES) | MIC [µg/mL] |
| --- | --- |
| CC[C@@H]([C@H](C)O)n1ncn(-c2ccc(N3CCN(c4ccc(OC[C@@H]5CO[C@@](Cn6cncn6)(c6ccc(F)cc6F)C5)cc4)CC3)cc2)c1=O [POSACONAZOLE] | 0.125 (≈ 0.178 µM) |

system: Nakaseomyces glabratus; assay: Antifungal activity against Candida glabrata isolated from neutropenic subjects with AML or MDS prior to initiation of fluconazole therapy by broth microdilution method; format: functional; conditions: not given

| Structure (SMILES) | MIC50 [µg/mL] | MIC90 [µg/mL] |
| --- | --- | --- |
| CC[C@@H]([C@H](C)O)n1ncn(-c2ccc(N3CCN(c4ccc(OC[C@@H]5CO[C@@](Cn6cncn6)(c6ccc(F)cc6F)C5)cc4)CC3)cc2)c1=O [POSACONAZOLE] | 0.5 (≈ 0.713 µM) | 2 (≈ 2.85 µM) |

system: Nakaseomyces glabratus; assay: Antifungal activity against Candida glabrata isolated from HSCT recipient 497 with acute or chronic GVHD mouth receiving antifungal drug after 114 days prophylaxis by broth microdilution method; format: functional; conditions: not given

| Structure (SMILES) | MIC [µg/mL] |
| --- | --- |
| CC[C@@H]([C@H](C)O)n1ncn(-c2ccc(N3CCN(c4ccc(OC[C@@H]5CO[C@@](Cn6cncn6)(c6ccc(F)cc6F)C5)cc4)CC3)cc2)c1=O [POSACONAZOLE] | 2 (≈ 2.85 µM) |

system: Nakaseomyces glabratus; assay: Antifungal activity against Candida glabrata isolated from HSCT recipient 002 with acute or chronic GVHD mouth receiving antifungal drug after 116 days prophylaxis by broth microdilution method; format: functional; conditions: not given

| Structure (SMILES) | MIC [µg/mL] |
| --- | --- |
| CC[C@@H]([C@H](C)O)n1ncn(-c2ccc(N3CCN(c4ccc(OC[C@@H]5CO[C@@](Cn6cncn6)(c6ccc(F)cc6F)C5)cc4)CC3)cc2)c1=O [POSACONAZOLE] | 4 (≈ 5.71 µM) |

system: Nakaseomyces glabratus; assay: Antifungal activity against 29 days cultured Candida glabrata isolated from neutropenic subject with AML or MDS pharynx after 48 days of prophylaxis by broth microdilution method; format: functional; conditions: not given

| Structure (SMILES) | MIC [µg/mL] |
| --- | --- |
| CC[C@@H]([C@H](C)O)n1ncn(-c2ccc(N3CCN(c4ccc(OC[C@@H]5CO[C@@](Cn6cncn6)(c6ccc(F)cc6F)C5)cc4)CC3)cc2)c1=O [POSACONAZOLE] | 8 (≈ 11.4 µM) |

system: Nakaseomyces glabratus; assay: Antifungal activity against 31 days cultured Candida glabrata isolated from HSCT recipient with acute or chronic GVHD mouth receiving antifungal therapy for 31 days after 28 days of prophylaxis by broth microdilution method; format: functional; conditions: not given

| Structure (SMILES) | MIC [µg/mL] |
| --- | --- |
| CC[C@@H]([C@H](C)O)n1ncn(-c2ccc(N3CCN(c4ccc(OC[C@@H]5CO[C@@](Cn6cncn6)(c6ccc(F)cc6F)C5)cc4)CC3)cc2)c1=O [POSACONAZOLE] | < 0.5 |

system: Saccharomyces cerevisiae; assay: Antifungal activity against Saccharomyces cerevisiae isolated from HSCT recipient 513 with acute or chronic GVHD mouth after 112 days prophylaxis by broth microdilution method; format: functional; conditions: not given

| Structure (SMILES) | MIC [µg/mL] |
| --- | --- |
| CC[C@@H]([C@H](C)O)n1ncn(-c2ccc(N3CCN(c4ccc(OC[C@@H]5CO[C@@](Cn6cncn6)(c6ccc(F)cc6F)C5)cc4)CC3)cc2)c1=O [POSACONAZOLE] | 1 (≈ 1.43 µM) |

system: Nakaseomyces glabratus; assay: Antifungal activity against Candida glabrata isolated from HSCT recipients with acute or chronic GVHD prior to initiation of posaconazole therapy assessed as maximum MIC by broth microdilution method; format: functional; conditions: not given

| Structure (SMILES) | MIC [µg/mL] |
| --- | --- |
| CC[C@@H]([C@H](C)O)n1ncn(-c2ccc(N3CCN(c4ccc(OC[C@@H]5CO[C@@](Cn6cncn6)(c6ccc(F)cc6F)C5)cc4)CC3)cc2)c1=O [POSACONAZOLE] | 8 |

system: Nakaseomyces glabratus; assay: Antifungal activity against Candida glabrata isolated from neutropenic subjects with AML or MDS receiving posaconazole by broth microdilution method; format: functional; conditions: not given

| Structure (SMILES) | MIC50 [µg/mL] | MIC90 [µg/mL] |
| --- | --- | --- |
| CC[C@@H]([C@H](C)O)n1ncn(-c2ccc(N3CCN(c4ccc(OC[C@@H]5CO[C@@](Cn6cncn6)(c6ccc(F)cc6F)C5)cc4)CC3)cc2)c1=O [POSACONAZOLE] | 0.5 (≈ 0.713 µM) | 4 (≈ 5.71 µM) |

system: Nakaseomyces glabratus; assay: Antifungal activity against Candida glabrata isolated from HSCT recipient 474 with acute or chronic GVHD mouth after 124 days prophylaxis by broth microdilution method; format: functional; conditions: not given

| Structure (SMILES) | MIC [µg/mL] |
| --- | --- |
| CC[C@@H]([C@H](C)O)n1ncn(-c2ccc(N3CCN(c4ccc(OC[C@@H]5CO[C@@](Cn6cncn6)(c6ccc(F)cc6F)C5)cc4)CC3)cc2)c1=O [POSACONAZOLE] | 0.25 (≈ 0.357 µM) |

system: Nakaseomyces glabratus; assay: Antifungal activity against Candida glabrata isolated from HSCT recipient 186 with acute or chronic GVHD mouth after 112 days prophylaxis by broth microdilution method; format: functional; conditions: not given

| Structure (SMILES) | MIC [µg/mL] |
| --- | --- |
| CC[C@@H]([C@H](C)O)n1ncn(-c2ccc(N3CCN(c4ccc(OC[C@@H]5CO[C@@](Cn6cncn6)(c6ccc(F)cc6F)C5)cc4)CC3)cc2)c1=O [POSACONAZOLE] | 0.25 (≈ 0.357 µM) |

system: Nakaseomyces glabratus; assay: Antifungal activity against 85 days cultured Candida glabrata isolated from HSCT recipient with acute or chronic GVHD mouth receiving antifungal therapy for 143 days after 116 days of prophylaxis by broth microdilution method; format: functional; conditions: not given

| Structure (SMILES) | MIC [µg/mL] |
| --- | --- |
| CC[C@@H]([C@H](C)O)n1ncn(-c2ccc(N3CCN(c4ccc(OC[C@@H]5CO[C@@](Cn6cncn6)(c6ccc(F)cc6F)C5)cc4)CC3)cc2)c1=O [POSACONAZOLE] | 4 (≈ 5.71 µM) |

system: Nakaseomyces glabratus; assay: Antifungal activity against 15 days cultured Candida glabrata isolated from HSCT recipient with acute or chronic GVHD mouth receiving antifungal therapy for 168 days after 113 days of prophylaxis by broth microdilution method; format: functional; conditions: not given

| Structure (SMILES) | MIC [µg/mL] |
| --- | --- |
| CC[C@@H]([C@H](C)O)n1ncn(-c2ccc(N3CCN(c4ccc(OC[C@@H]5CO[C@@](Cn6cncn6)(c6ccc(F)cc6F)C5)cc4)CC3)cc2)c1=O [POSACONAZOLE] | 2 (≈ 2.85 µM) |

system: Pichia kudriavzevii; assay: Antifungal activity against 16 days cultured Candida krusei isolated from neutropenic subject with AML or MDS stool receiving antifungal therapy for 19 days after 6 days of prophylaxis by broth microdilution method; format: functional; conditions: not given

| Structure (SMILES) | MIC [µg/mL] |
| --- | --- |
| CC[C@@H]([C@H](C)O)n1ncn(-c2ccc(N3CCN(c4ccc(OC[C@@H]5CO[C@@](Cn6cncn6)(c6ccc(F)cc6F)C5)cc4)CC3)cc2)c1=O [POSACONAZOLE] | 0.25 (≈ 0.357 µM) |

system: Nakaseomyces glabratus; assay: Antifungal activity against 19 days cultured Candida glabrata isolated from HSCT recipient with acute or chronic GVHD mouth after 17 days of prophylaxis by broth microdilution method; format: functional; conditions: not given

| Structure (SMILES) | MIC [µg/mL] |
| --- | --- |
| CC[C@@H]([C@H](C)O)n1ncn(-c2ccc(N3CCN(c4ccc(OC[C@@H]5CO[C@@](Cn6cncn6)(c6ccc(F)cc6F)C5)cc4)CC3)cc2)c1=O [POSACONAZOLE] | 8 (≈ 11.4 µM) |

system: Nakaseomyces glabratus; assay: Antifungal activity against Candida glabrata isolated from neutropenic subjects with AML or MDS receiving fluconazole by broth microdilution method; format: functional; conditions: not given

| Structure (SMILES) | MIC50 [µg/mL] | MIC90 [µg/mL] |
| --- | --- | --- |
| CC[C@@H]([C@H](C)O)n1ncn(-c2ccc(N3CCN(c4ccc(OC[C@@H]5CO[C@@](Cn6cncn6)(c6ccc(F)cc6F)C5)cc4)CC3)cc2)c1=O [POSACONAZOLE] | 0.5 (≈ 0.713 µM) | 1 (≈ 1.43 µM) |
